Values of other authors in patent US9289389B2, “Method for producing matrix-type pharmaceutical solid preparation” (OTSUKA PHARMACEUTICAL CO., LTD., priority 2007, dated 2016).

details: water 20° C.

Which “amount of water necessary to dissolve 1 g” value does the source give for OC[C@H]1O[C@H](O[C@H]2[C@H](O)[C@@H](O)C(O)O[C@@H]2CO)[C@H](O)[C@@H](O)[C@@H]1O (mixture of isomers) [maltose monohydrate] here?
Its value is 1.2 g.

For OC[C@H]1O[C@H](O[C@H]2O[C@H](CO)[C@@H](O)[C@H](O)[C@H]2O)[C@H](O)[C@@H](O)[C@@H]1O [trehalose dihydrate], which “amount of water necessary to dissolve 1 g” value is on record?
Its value is 1.2 g.

For OC[C@@H](O)[C@H](O)[C@@H](O)CO [xylitol], which “amount of water necessary to dissolve 1 g” value is on record?
The value was 1.6 g.

Which “amount of water necessary to dissolve 1 g” value does the source give for OC[C@@H](O)[C@@H](O[C@@H]1O[C@H](CO)[C@H](O)[C@H](O)[C@H]1O)[C@H](O)[C@@H](O)CO [lactitol] here?
The value was 1.8 g.

same assay, conditions: water 25° C.

Which “amount of water necessary to dissolve 1 g” value does the source give for OC[C@@H](O)[C@@H](O)CO [erythritol] here?
Its value is 3.3 g.

Which “amount of water necessary to dissolve 1 g” value does the source give for OC[C@@H](O)[C@@H](O)[C@H](O)[C@@H](O)CO [sorbitol] here?
The value was 0.5 mL (g).

same assay, conditions: water temperature not stated

For OC[C@H]1O[C@@](CO)(O[C@H]2O[C@H](CO)[C@@H](O)[C@H](O)[C@H]2O)[C@@H](O)[C@@H]1O [sucrose], which “amount of water necessary to dissolve 1 g of sugar and/or sugar alcohol” value (from here on “amount … of sugar and/or sugar alcohol”) is on record?
Its value is 0.5 g.

Which “amount … of sugar and/or sugar alcohol” value does the source give for OC[C@@H](O)[C@@H](O[C@H]1O[C@H](CO)[C@@H](O)[C@H](O)[C@H]1O)[C@H](O)[C@@H](O)CO [maltitol] here?
The value was “easily soluble”.

With O=C(CO)[C@@H](O)[C@H](O)[C@H](O)CO [fructose] as the compound, how does the “amount … of sugar and/or sugar alcohol” value read?
Its value is 0.3 g.
